Data from US20100179158A1, “INHIBITORS OF CYCLIC AMP PHOSPHODIESTERASES” (priority 2007, published 2010).
Values belong to the compound of their own block, whether it stands above or below them.

How the values were obtained:
[1] = tested on: PDE2A, PDE4A, PDE4B, Cgs2; test: High throughput 5FOA growth screens of bioactive libraries; format: cell-based, murine; Schizosaccharomyces pombe; details: average 20 μM; composite Z score cut-off ≧8.53
Procedure: High throughput drug screens were carried out at the Broad Institute's Chemical Biology Program screening facility (Broad Institute, Cambridge, Mass.). Depending upon the strain, cultures were pregrown to exponential phase in EMM complete medium containing from 0.5 to 2.5 mM cAMP to repress fbp1-ura4 transcription. […] Starting cell concentrations ranged from 0.5×10^5 to 4×10^5 cells/ml depending on the screening strain. […] Other positive control dishes contained 5 mM cAMP in the 5FOA medium. Cultures were grown for 48 hours at 30° C., sealed in an airtight container with moist paper towels to prevent evaporation. Optical densities (OD600) of cultures were measured using a microplate reader. Bioinformatic analysis of the results to determine composite Z scores was performed as previously described^30, 31.

Cgs2 = molecular target: T1, Cgs2 (Schizosaccharomyces pombe, UniProt P36599); test: fbp1-lacZ β-galactosidase assay, Cgs2 strain CHP861; format: cell-based; details: specific activity per milligram of soluble protein, average ± SD
T1 construct: the wild-type S. pombe Cgs2^+ PDE; endogenous in cells; host or cells: Schizosaccharomyces pombe strain CHP861
T1 sequence (P36599 1-346): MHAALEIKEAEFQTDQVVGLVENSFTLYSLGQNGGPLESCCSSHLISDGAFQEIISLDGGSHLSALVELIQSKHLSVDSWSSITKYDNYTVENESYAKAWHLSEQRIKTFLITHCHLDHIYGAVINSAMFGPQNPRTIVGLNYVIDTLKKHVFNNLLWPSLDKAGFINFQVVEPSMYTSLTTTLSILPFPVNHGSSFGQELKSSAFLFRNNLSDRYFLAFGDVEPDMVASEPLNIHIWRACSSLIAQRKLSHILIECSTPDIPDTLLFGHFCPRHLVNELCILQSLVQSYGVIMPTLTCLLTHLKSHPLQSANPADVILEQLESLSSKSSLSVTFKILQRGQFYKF
Procedure: (§1) β-galactosidase assays and characterization of 5FOA-sensitivity were carried out as previously described^10. cAMP assays were performed on exponential phase cells grown in EMM complete medium (3% glucose), using the Assay Designs cAMP EIA kit, according to manufacturer's instructions (Assay Designs, Ann arbor, MI).
(§2) The effect of known PDE inhibitors on the expression of the fbp1-lacZ fusion in murine PDE-expressing strains was tested. […] For Table 4 β-galactosidase activity was determined from 3 to 4 independent exponential phase cultures. The average±SD represents specific activity per milligram of soluble protein.

PDE8A [2] = molecular target: T2, PDE8A (Mus musculus, UniProt O88502); test: fbp1-lacZ β-galactosidase assay, PDE8A strain DDP13; format: cell-based, murine; details: for β-galactosidase activity, PDE8A strain: specific activity per milligram of soluble protein, average ± SD
T2 construct: targets used in the assays are full-length proteins (as opposed to simply the catalytic domain); expressed in transfected cells; host or cells: Schizosaccharomyces pombe strains DDP13 and CHP1141
T2 sequence (O88502 1-823): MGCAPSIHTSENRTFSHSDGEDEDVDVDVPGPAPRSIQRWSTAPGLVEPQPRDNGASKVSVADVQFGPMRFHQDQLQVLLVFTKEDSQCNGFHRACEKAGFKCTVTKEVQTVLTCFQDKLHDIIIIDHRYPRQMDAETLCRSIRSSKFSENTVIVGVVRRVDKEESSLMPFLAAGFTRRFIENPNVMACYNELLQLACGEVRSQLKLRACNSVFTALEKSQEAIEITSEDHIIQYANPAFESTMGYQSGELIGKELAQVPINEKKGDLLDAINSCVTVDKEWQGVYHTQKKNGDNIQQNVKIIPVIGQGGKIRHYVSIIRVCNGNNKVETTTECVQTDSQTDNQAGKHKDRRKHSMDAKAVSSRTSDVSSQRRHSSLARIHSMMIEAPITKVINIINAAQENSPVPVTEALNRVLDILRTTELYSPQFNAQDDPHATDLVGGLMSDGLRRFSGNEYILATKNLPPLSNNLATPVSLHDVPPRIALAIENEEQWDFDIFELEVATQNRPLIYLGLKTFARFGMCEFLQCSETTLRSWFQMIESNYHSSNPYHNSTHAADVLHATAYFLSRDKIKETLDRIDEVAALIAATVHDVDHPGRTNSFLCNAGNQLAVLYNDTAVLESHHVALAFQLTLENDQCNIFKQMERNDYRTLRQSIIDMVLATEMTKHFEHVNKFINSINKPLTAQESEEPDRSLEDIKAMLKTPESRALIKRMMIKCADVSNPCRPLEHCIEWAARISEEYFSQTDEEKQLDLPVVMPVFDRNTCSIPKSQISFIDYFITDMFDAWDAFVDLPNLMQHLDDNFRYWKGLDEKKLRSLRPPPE
Procedure: as §1, §2

PDE8A [3] = molecular target: T2, PDE8A; test: cAMP assay in yeast strain CHP1141 expressing PDE8A; format: cell-based, murine; details: rolipram 20 and 200 μM, one-hour time point
Procedure: as §1
(§3) Thus, PDE inhibition can be indirectly quantitated by measuring the effect of a compound on cAMP levels in target yeast strains.

PDE4A1 = molecular target: T3, PDE4A1 (Mus musculus, UniProt O89084); test: IC50 on PDE4A1; format: biochemical, murine; details: read-out: IC50, PDE 4A1
T3 construct: targets used in the assays are full-length proteins (as opposed to simply the catalytic domain); expressed in transfected cells; host or cells: Schizosaccharomyces pombe, gene integrated at the cgs2 locus
T3 sequence (O89084 1-610 isoform O89084-2): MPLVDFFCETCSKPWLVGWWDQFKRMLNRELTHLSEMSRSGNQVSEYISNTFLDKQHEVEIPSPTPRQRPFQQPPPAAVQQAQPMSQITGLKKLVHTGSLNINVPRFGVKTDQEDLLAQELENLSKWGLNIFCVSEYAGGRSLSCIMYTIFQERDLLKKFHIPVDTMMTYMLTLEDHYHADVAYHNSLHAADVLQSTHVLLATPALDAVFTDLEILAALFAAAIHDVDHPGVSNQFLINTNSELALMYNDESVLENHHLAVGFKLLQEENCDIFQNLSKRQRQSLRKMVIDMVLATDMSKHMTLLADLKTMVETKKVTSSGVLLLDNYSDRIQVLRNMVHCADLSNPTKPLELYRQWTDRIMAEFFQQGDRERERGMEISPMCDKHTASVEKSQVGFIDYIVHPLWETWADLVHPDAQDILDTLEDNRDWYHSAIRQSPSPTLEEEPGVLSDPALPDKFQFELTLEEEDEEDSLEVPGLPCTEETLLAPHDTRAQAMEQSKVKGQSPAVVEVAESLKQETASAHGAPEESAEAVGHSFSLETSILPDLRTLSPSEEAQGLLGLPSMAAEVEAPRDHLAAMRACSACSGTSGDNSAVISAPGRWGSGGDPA

PDE4D3 = molecular target: T4, PDE4D3 (Homo sapiens, UniProt Q08499); test: IC50 on PDE4D3; format: biochemical; details: read-out: IC50, PDE 4D3
T4 construct: targets used in the assays are full-length proteins (as opposed to simply the catalytic domain); expressed in transfected cells; host or cells: Schizosaccharomyces pombe, gene integrated at the cgs2 locus
T4 sequence (Q08499 1-673 isoform Q08499-2): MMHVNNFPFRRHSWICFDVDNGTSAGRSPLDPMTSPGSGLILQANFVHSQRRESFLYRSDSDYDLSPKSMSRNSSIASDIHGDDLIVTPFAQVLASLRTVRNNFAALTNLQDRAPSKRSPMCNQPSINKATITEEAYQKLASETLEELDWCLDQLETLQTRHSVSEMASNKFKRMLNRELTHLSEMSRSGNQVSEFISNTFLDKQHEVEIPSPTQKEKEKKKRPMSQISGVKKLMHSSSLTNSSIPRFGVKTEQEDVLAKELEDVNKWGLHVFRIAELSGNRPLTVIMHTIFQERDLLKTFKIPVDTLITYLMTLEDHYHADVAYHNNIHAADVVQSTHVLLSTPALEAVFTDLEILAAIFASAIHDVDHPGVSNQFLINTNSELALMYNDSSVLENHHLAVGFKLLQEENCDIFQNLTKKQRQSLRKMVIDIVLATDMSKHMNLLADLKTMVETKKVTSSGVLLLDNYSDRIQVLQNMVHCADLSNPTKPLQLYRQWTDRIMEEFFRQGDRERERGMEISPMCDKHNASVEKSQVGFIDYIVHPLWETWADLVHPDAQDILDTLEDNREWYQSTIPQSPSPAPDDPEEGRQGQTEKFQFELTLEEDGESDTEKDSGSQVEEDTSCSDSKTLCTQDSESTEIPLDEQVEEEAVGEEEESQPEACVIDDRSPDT

PDE2A [4] = molecular target: T5, PDE2A (Mus musculus, UniProt Q922S4); test: fbp1-lacZ β-galactosidase assay, PDE2A strain LWP367; format: cell-based, murine; details: specific activity per milligram of soluble protein, average ± SD
T5 construct: targets used in the assays are full-length proteins (as opposed to simply the catalytic domain); expressed in transfected cells; host or cells: Schizosaccharomyces pombe strains LWP367 and LWP371
T5 sequence (Q922S4 1-939): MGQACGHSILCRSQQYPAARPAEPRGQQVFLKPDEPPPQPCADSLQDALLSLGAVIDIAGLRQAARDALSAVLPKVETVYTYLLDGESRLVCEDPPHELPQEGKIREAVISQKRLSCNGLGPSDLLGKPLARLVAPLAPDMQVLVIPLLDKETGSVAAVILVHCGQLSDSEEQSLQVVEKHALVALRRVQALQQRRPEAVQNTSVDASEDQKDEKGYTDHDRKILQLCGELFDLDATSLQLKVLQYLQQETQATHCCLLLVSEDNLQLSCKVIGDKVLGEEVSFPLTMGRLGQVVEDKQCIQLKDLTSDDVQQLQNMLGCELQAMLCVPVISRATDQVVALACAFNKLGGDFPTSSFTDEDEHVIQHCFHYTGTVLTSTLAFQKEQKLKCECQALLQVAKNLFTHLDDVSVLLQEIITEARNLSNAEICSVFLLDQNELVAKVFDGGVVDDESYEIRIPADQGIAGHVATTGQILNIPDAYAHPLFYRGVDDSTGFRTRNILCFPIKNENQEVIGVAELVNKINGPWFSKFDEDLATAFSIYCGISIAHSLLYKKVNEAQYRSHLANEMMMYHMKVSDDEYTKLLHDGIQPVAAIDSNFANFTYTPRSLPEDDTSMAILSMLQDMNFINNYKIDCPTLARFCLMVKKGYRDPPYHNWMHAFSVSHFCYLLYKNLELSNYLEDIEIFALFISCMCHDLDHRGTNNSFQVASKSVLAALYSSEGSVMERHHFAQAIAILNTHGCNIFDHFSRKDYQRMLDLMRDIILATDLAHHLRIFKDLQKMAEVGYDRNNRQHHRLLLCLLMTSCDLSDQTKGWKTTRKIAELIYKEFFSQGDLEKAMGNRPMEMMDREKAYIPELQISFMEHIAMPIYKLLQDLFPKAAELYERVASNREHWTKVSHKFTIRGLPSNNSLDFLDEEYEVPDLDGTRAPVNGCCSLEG
Procedure: as §1, §2

PDE2A [5] = molecular target: T5, PDE2A; test: cAMP assay in yeast strain LWP371 expressing PDE2A; format: cell-based, murine; details: 20 μM EHNA as compared to 200 μM, one-hour time point
Procedure: as §1, §3

PDE7A = molecular target: T6, PDE7A (Homo sapiens, UniProt Q13946); test: cAMP assay in yeast strain expressing PDE7A; format: cell-based
T6 construct: targets used in the assays are full-length proteins (as opposed to simply the catalytic domain); expressed in transfected cells; host or cells: Schizosaccharomyces pombe, gene integrated at the cgs2 locus
T6 sequence (Q13946 whole entry, the tested form may be a part): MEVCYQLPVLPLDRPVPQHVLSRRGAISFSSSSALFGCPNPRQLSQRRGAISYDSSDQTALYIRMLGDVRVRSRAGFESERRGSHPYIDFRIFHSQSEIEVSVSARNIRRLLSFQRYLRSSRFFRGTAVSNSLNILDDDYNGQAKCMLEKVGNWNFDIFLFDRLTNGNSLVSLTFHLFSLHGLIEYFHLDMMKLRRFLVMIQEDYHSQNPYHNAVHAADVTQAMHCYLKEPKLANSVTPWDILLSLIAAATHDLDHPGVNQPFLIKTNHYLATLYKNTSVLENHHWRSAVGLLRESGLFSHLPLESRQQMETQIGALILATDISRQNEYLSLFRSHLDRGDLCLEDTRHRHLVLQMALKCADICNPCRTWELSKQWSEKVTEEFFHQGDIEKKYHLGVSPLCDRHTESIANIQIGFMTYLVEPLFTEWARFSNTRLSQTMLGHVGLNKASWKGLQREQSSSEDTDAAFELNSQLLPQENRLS

[6] = tested on: PDE4A, PDE4B, PDE4D, PDE7A; test: Overall PDE inhibitor profile from the yeast assays (table footnotes, summary); format: cell-based
Description: PDE inhibitors were identified using methods described herein, such as high throughput drug screens on genetically engineered fission yeast strains that express drug targets (e.g., PDE4A and/or PDE4B, which are anti-inflammatory targets). PDE inhibitors were identified based on their ability to stimulate growth and compounds were identified because they were effective in live cells. In addition, targets used in the assays are full-length proteins (as opposed to simply the catalytic domain) and the assay used included a built-in toxicity test, permeability test and stability test. The inhibitors identified display a very high degree of target specificity. Compounds identified include inhibitors that act on two of three PDE4 family enzymes and inhibitors that act on combinations of PDE4 and PDE7 strains. […] Limited inhibition of PDE4D by a PDE inhibitor is desirable, in view of the fact that inhibition of PDE4D causes emesis and cardiac arrhythmias. Subtype specificity was confirmed by means of cAMP assays.
Cells were pregrown in EMM medium [MP Biomedicals (Solon, OH), 3% glucose, filter-sterilized to avoid carmelization, which would introduce variability into the optical density of the medium] containing from 0 mM to 2.5 mM cAMP (or either 0.5 mM or 1.0 mM cGMP). This was to repress expression of the fbp1-ura4 reporter prior to exposure of cells to 5FOA medium. Cells were grown at 30° C. to exponential phase (approximately 10^7 cells/ml). Cells were collected by centrifugation and resuspended in 5FOA medium, and 25 μl were transferred to 384-well microtiter dishes (untreated, with flat clear bottoms) that had been pre-filled with 25 μl 5FOA medium and pre-pinned with 100 nl of compounds (stock solutions were generally 10 mM). Starting cell concentrations ranged from 0.5×10^5 to 4×10^5 cells/ml depending on the screening strain. […] Other positive control dishes contained 5 mM cAMP in the 5FOA medium for PDEs that lack appropriate control compounds. Cultures were grown for 48 hours at 30° C., sealed in an airtight container with moist paper towels to prevent evaporation. Optical densities (OD600) of cultures were measured using a microplate reader. Bioinformatic analysis of the results to determine composite Z scores was performed as previously described (1, 3).

Structure (SMILES): Cc1cc2cc3c(C)cc(=O)oc3c(C)c2o1 [trioxsalen]
Result in high throughput screens for 5FOA-resistant growth [1]: identified

Structure (SMILES): COc1ccc(C2CNC(=O)C2)cc1OC1CCCC1 (stereo not drawn) [Rolipram, rolipram]
β-galactosidase activity, Cgs2 strain (Cgs2; 50 μM Rolipram): 1807 ± 446
β-galactosidase activity, Cgs2 strain (Cgs2; 100 μM Rolipram): 1784 ± 429
β-galactosidase activity, PDE8A strain (PDE8A [2]; 50 μM Rolipram): 253 ± 46
β-galactosidase activity, PDE8A strain (PDE8A [2]; 100 μM Rolipram): 237 ± 67
cAMP levels in PDE8A strain on treatment (PDE8A [3]): completely insensitive
Result in high throughput screens for 5FOA-resistant growth [1]: only affected the PDE4A- and PDE4B-expressing strains

Structure (SMILES): COc1c2ccoc2cc2oc(C)cc(=O)c12 [visnagin]
Result in high throughput screens for 5FOA-resistant growth [1]: identified

Structure (SMILES): COc1c2occc2c(OC)c2c(=O)cc(C)oc12 [khellin]
Result in high throughput screens for 5FOA-resistant growth [1]: identified

Further lines, with some results ahead:

IC50 (PDE4A1): 0.1 µM
IC50 (PDE4D3): 0.035 µM
Structure (SMILES): CC(C)n1c2ccc(Cl)cc2c2nc3ccccc3nc21 [Compound 35]

Inhibition of PDE8A in yeast (PDE8A [2]; possibly a permeability problem in the yeast): not able to be inhibited
Structure (SMILES): OCCN(CCO)c1nc(N2CCCCC2)c2nc(N(CCO)CCO)nc(N3CCCCC3)c2n1 [dipyridamole]

β-galactosidase activity, PDE2A strain (PDE2A [4]; 5 μM EHNA): 473 ± 19
β-galactosidase activity, PDE2A strain (PDE2A [4]; 20 μM EHNA): 197 ± 51
β-galactosidase activity, PDE2A strain (PDE2A [4]; 200 μM EHNA): 45 ± 3
PDE2A inhibition judged by cAMP levels (PDE2A [5]): partial inhibition
Structure (SMILES): CCCCCC[C@@H]([C@@H](C)O)n1cnc2c(N)ncnc21 (racemic) [EHNA, erythro-9-(2-hydroxy-3-nonyl)adenine]

cAMP Response (%BRL50481), PDE 7A (PDE7A): 89.00 %BRL50481
Structure (SMILES): COc1ccc2c(c1)C1(C)CCC(=O)CC1CC2 (single isomer, unassigned) [Compound 11]
PDE inhibitor profile in words (table footnote / summary) [6]: (3) Strong PDE7A inhibitor
